In patent US20100292255A1, “Therapeutic Compounds and Their Use in Treating Diseases and Disorders” (Myriad Pharmaceuticals, Inc., priority 2007, published 2010):

Test system: T1, purified human Hsp90
T1 construct: purified human Hsp90 (Stressgen, SPP-770)
Assay: Hsp90 binding assay: displacement of BODIPY-labeled geldanamycin measured by fluorescence polarization
Conditions: 5 μM compound; BODIPY-GM 10 nM, Hsp90 30 nM, overnight at room temperature
In short: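 Fluorescence polarization measured displacement of BODIPY-geldanamycin (10 nM) from purified human Hsp90 (30 nM). The buffer was HEPES-KOH pH 7.3 with molybdate, NP-40, gamma globulin and DTT, 2% DMSO, overnight at room temperature, ex/em 485/530 nm. % inhibition was calculated against DMSO controls, and points confounded by compound fluorescence were excluded.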

| SMILES | GM displacement from purified Hsp90 measured by FP Inhibition by 5 μM compd. (%) |
| --- | --- |
| N#Cc1cc2c(cc1Sc1nc3c(N)ncn(CCn4c(=O)n5n(c4=O)CC=CC5)c-3n1)OCO2 [compound 63] | 34.0% |
| CCC(=O)N1CCC(CCn2cnc(N)c3nc(Sc4cc5c(cc4C#N)C(=O)CC5)nc2-3)CC1 [compound 74, 6-({6-Amino-3-[2-(1-propionylpiperidin-4-yl)ethyl]-3H-purin-8-yl}thio)-3-oxoindane-5-carbonitrile] | 18.0% |
| COc1ccc(OC(F)(F)F)c(Sc2nc3c(N)ncn(CCC4CCN(C=O)CC4)c-3n2)c1 [compound 78] | 14.0% |
| COc1ccc(C#N)c(Sc2nc3c(N)ncn(CCC4CCN(C=O)CC4)c-3n2)c1 [compound 80] | 34.0% |
| Nc1ncn(CCC2CCN(C=O)CC2)c2nc(Sc3cc4c(cc3Br)CCC4)nc1-2 [compound 85] | 35.0% |
| Nc1ncn(CCC2CCN(C=O)CC2)c2nc(Sc3cc4c(cc3Br)C(=O)CC4)nc1-2 [compound 87, 4-(2-{6-Amino-8-[(6-bromo-1-oxo-2,3-dihydro-1H-inden-5-yl)thio]-3H-purin-3-yl}ethyl)piperidine-l-carbaldehyde] | 20.0% |

Continued, values first:

| GM displacement from purified Hsp90 measured by FP Inhibition by 5 μM compd. (%) | SMILES |
| --- | --- |
| 77.0% | CS(=O)(=O)N1CCCC(CCn2cnc(N)c3nc(Sc4cc5c(cc4C#N)OCO5)nc2-3)C1 (stereo not shown) [compound 48, 6-[(6-Amino-3-{2-[1-(methylsulfonyl)piperidin-3-yl]ethyl}-3H-purin-8-yl)thio]-1,3-benzodioxole-5-carbonitrile] |
| 60.0% | CS(=O)(=O)N1CCCC(CCn2cnc(N)c3nc(Sc4cc5c(cc4C#N)OCCO5)nc2-3)C1 (stereo not shown) [compound 53, 7-[(6-Amino-3-{2-[1-(methylsulfonyl)piperidin-3-yl]ethyl}-3H-purin-8-yl)thio]-2,3-dihydro-1,4-benzodioxine-6-carbonitrile] |
| 26.0% | CS(=O)(=O)N1CCC(CCn2cnc(N)c3nc(Sc4cc5c(cc4C#N)OCCO5)nc2-3)CC1 [compound 55] |
| 25.0% | Nc1ncn(CCC2CCN(C=O)CC2)c2nc(Sc3cc4c(cc3[N+](=O)[O-])OCO4)nc1-2 [compound 65, 4-(2-{6-Amino-8-[(6-nitro-1,3-benzodioxol-5-yl)thio]-3H-purin-3-yl}ethyl)piperidine-1-carbaldehyde] |
| 46.0% | CC(=O)N1CCC(CCn2cnc(N)c3nc(Sc4cc5c(cc4[N+](=O)[O-])OCCO5)nc2-3)CC1 [compound 69, 3-[2-(1-Acetylpiperidin-4-yl)ethyl]-8-[(7-nitro-2,3-dihydro-1,4-benzodioxin-6-yl)thio]-3H-purin-6-amine] |
| 23.0% | CC(=O)N1CCC(CCn2cnc(N)c3nc(Sc4cc5c(cc4[N+](=O)[O-])OCO5)nc2-3)CC1 [compound 71, 3-[2-(1-Acetylpiperidin-4-yl)ethyl]-8-[(6-nitro-1,3-benzodioxol-5-yl)thio]-3H-purin-6-amine] |
| 23.0% | CC(=O)N1CCC(CCn2cnc(N)c3nc(Sc4cc5c(cc4Cl)OCCO5)nc2-3)CC1 [compound 72, 3-[2-(1-Acetylpiperidin-4-yl)ethyl]-8-[(7-chloro-2,3-dihydro-1,4-benzodioxin-6-yl)thio]-3H-purin-6-amine] |
| 19.0% | CCCC(=O)N1CCC(CCn2cnc(N)c3nc(Sc4cc5c(cc4Br)OCCO5)nc2-3)CC1 [compound 83, 8-[(7-Bromo-2,3-dihydro-1,4-benzodioxin-6-yl)thio]-3-[2-(1-butyrylpiperidin-4-yl)ethyl]-3H-purin-6-amine] |

Same assay, conditions: BODIPY-GM 10 nM, Hsp90 30 nM, overnight at room temperature; read-out: GM displacement from purified Hsp90 measured by FP IC 50

| SMILES | IC50 |
| --- | --- |
| CCCN1CCCCC1CCn1c(Sc2cc3c(cc2C#N)OCO3)nc2c(N)ncnc21 (stereo not shown) [compound 50, 6-({6-Amino-9-[2-(1-propylpiperidin-2-yl)ethyl]-9H-purin-8-yl}thio)-1,3-benzodioxole-5-carbonitrile] | 1200 nM |
| CS(=O)(=O)N1CCCCC1CCn1c(Sc2cc3c(cc2C#N)OCCO3)nc2c(N)ncnc21 (stereo not shown) [compound 51, 7-[(6-Amino-9-{2-[1-(methylsulfonyl)piperidin-2-yl]ethyl}-9H-purin-8-yl)thio]-2,3-dihydro-1,4-benzodioxine-6-carbonitrile] | 370 nM |
| N#Cc1cc2c(cc1Sc1nc3c(N)ncnc3n1CCC1CCN(C=O)CC1)OCCO2 [compound 57] | 120 nM |
| Cn1nnnc1N1CCC(CCn2c(Sc3cc4c(cc3C#N)OCCO4)nc3c(N)ncnc32)CC1 [compound 58, 7-[(6-Amino-9-{2-[1-(1-methyl-1H-tetrazol-5-yl)piperidin-4-yl]ethyl}-9H-purin-8-yl)thio]-2,3-dihydro-1,4-benzodioxine-6-carbonitrile] | 180 nM |
| CC(=O)N1CCC(CCn2c(Sc3cc4c(cc3C#N)OCCO4)nc3c(N)ncnc32)CC1 [compound 60, 7-({9-[2-(1-Acetylpiperidin-4-yl)ethyl]-6-amino-9H-purin-8-yl}thio)-2,3-dihydro-1,4-benzodioxine-6-carbonitrile] | 60 nM |
| CCC(=O)N1CCC(CCn2c(Sc3cc4c(cc3C#N)OCO4)nc3c(N)ncnc32)CC1 [compound 61] | 200 nM |
| Nc1ncnc2c1nc(Sc1cc3c(cc1[N+](=O)[O-])OCO3)n2CCC1CCN(C=O)CC1 [compound 64, 4-(2-{6-Amino-8-[(6-nitro-1,3-benzodioxol-5-yl)thio]-9H-purin-9-yl}ethyl)piperidine-1-carbaldehyde] | 1500 nM |
| Nc1ncnc2c1nc(Sc1cc3c(cc1[N+](=O)[O-])OCCO3)n2CCC1CCN(C=O)CC1 [compound 66, 4-(2-{6-Amino-8-[(7-nitro-2,3-dihydro-1,4-benzodioxin-6-yl)thio]-9H-purin-9-yl}ethyl)piperidine-1-carbaldehyde] | 73 nM |
| CC(=O)N1CCC(CCn2c(Sc3cc4c(cc3[N+](=O)[O-])OCCO4)nc3c(N)ncnc32)CC1 [compound 68, 9-[2-(1-Acetylpiperidin-4-yl)ethyl]-8-[(7-nitro-2,3-dihydro-1,4-benzodioxin-6-yl)thio]-9H-purin-6-amine] | 50 nM |
| CC(=O)N1CCC(CCn2c(Sc3cc4c(cc3[N+](=O)[O-])OCO4)nc3c(N)ncnc32)CC1 [compound 70] | 455 nM |
| CC(=O)N1CCC(CCn2c(Sc3cc4c(cc3Cl)OCCO4)nc3c(N)ncnc32)CC1 [compound 73, 9-[2-(1-Acetylpiperidin-4-yl)ethyl]-8-[(7-chloro-2,3-dihydro-1,4-benzodioxin-6-yl)thio]-9H-purin-6-amine] | 260 nM |
| CC(=O)N1CCC(CCn2c(Sc3cc4c(cc3CC#N)OCO4)nc3c(N)ncnc32)CC1 [compound 75, [6-({9-[2-(1-Acetylpiperidin-4-yl)ethyl]-6-amino-9H-purin-8-yl}thio)-1,3-benzodioxol-5-yl]acetonitrile] | 2500 nM |
| Nc1ncnc2c1nc(Sc1cc3c(cc1I)CCC3)n2CCC1CCN(C=O)CC1 [compound 76, 4-(2-{6-Amino-8-[(6-iodo-2,3-dihydro-1H-inden-5-yl)thio]-9H-purin-9-yl}ethyl)piperidine-l-carbaldehyde] | 70 nM |
| COc1ccc(OC(F)(F)F)c(Sc2nc3c(N)ncnc3n2CCC2CCN(C=O)CC2)c1 [compound 77, 4-[2-(6-Amino-8-{[5-methoxy-2-(trifluoromethoxy)phenyl]thio}-9H-purin-9-yl)ethyl]piperidine-1-carbaldehyde] | 400 nM |
| COc1ccc(C#N)c(Sc2nc3c(N)ncnc3n2CCC2CCN(C=O)CC2)c1 [compound 79] | 700 nM |
| CCCC(=O)N1CCC(CCn2c(Sc3cc4c(cc3Br)OCCO4)nc3c(N)ncnc32)CC1 [compound 81, 8-[(7-Bromo-2,3-dihydro-1,4-benzodioxin-6-yl)thio]-9-[2-(1-butyrylpiperidin-4-yl)ethyl]-9H-purin-6-amine] | 100 nM |
| CCCC(=O)N1CCC(CCn2c(Sc3cc4c(cc3Br)OCO4)nc3c(N)ncnc32)CC1 [compound 82, 8-[(6-Bromo-1,3-benzodioxol-5-yl)thio]-9-[2-(1-butyrylpiperidin-4-yl)ethyl]-9H-purin-6-amine] | 295 nM |
| Nc1ncnc2c1nc(Sc1cc3c(cc1Br)CCC3)n2CCC1CCN(C=O)CC1 [compound 84] | 20 nM |
| Nc1ncnc2c1nc(Sc1cc3c(cc1Br)C(=O)CC3)n2CCC1CCN(C=O)CC1 [compound 86, 4-(2{6-Amino-8-[(6-bromo-l-oxo-2,3-dihydro-1H-inden-5-yl)thio]-9H-purin-9-yl}ethyl)piperidine-1-carbaldehyde] | 60 nM |
| C[C@H](O)C(=O)N1CCC(CCn2c(Sc3cc4c(cc3Br)OCCO4)nc3c(N)ncnc32)CC1 [compound 88, (2S)-1-[4-(2-{6-Amino-8-[(7-bromo-2,3-dihydro-1,4-benzodioxin-6-yl)thio]-9H-purin-9-yl}ethyl)piperidin-1-yl]-1-oxopropan-2-ol] | 80 nM |

Results, then the molecule that gave them:

| IC50 | SMILES |
| --- | --- |
| 480 nM | CS(=O)(=O)N1CCC(CCn2c(Sc3cc4c(cc3C#N)OCO4)nc3c(N)ncnc32)CC1 [compound 49, 6-[(6-Amino-9-{2-[1-(methylsulfonyl)piperidin-4-yl]ethyl}-9H-purin-8-yl)thio]-1,3-benzodioxole-5-carbonitrile] |
| 150 nM | CS(=O)(=O)N1CCCC(CCn2c(Sc3cc4c(cc3C#N)OCCO4)nc3c(N)ncnc32)C1 (stereo not shown) [compound 52, 7-[(6-Amino-9-{2-[1-(methylsulfonyl)piperidin-3-yl]ethyl}-9H-purin-8-yl)thio]-2,3-dihydro-1,4-benzodioxine-6-carbonitrile] |
| 550 nM | CS(=O)(=O)N1CCC(CCn2c(Sc3cc4c(cc3C#N)OCCO4)nc3c(N)ncnc32)CC1 [compound 54, 7-[(6-Amino-9-{2-[1-(methylsulfonyl)piperidin-4-yl]ethyl}-9H-purin-8-yl)thio]-2,3-dihydro-1,4-benzodioxine-6-carbonitrile] |
